Source: US11814392B2, “Chromenopyridine-based compounds and methods of making and use thereof” (Rosalind Franklin University of Medicine and Science, priority 2020, dated 2023)

What was measured:
UACC-62 = assay: NCI 60 five-dose screening, UACC-62
Protocol: (§1) The National Cancer Institute's Developmental Therapeutic preclinical 60 human cancer cell lines were used for an in vitro screen. […] The one-dose and five-dose experiments were conducted according to standard NCI protocols.
(§2) The human tumor cell lines of the cancer screening panel are grown in RPMI 1640 medium containing 5% fetal bovine serum and 2 mM L-glutamine. For a typical screening experiment, cells are inoculated into 96 well microtiter plates in 100 μL at plating densities ranging from 5,000 to 40,000 cells/well depending on the doubling time of individual cell lines. After cell inoculation, the microtiter plates are incubated at 37° C., 5% CO2, 95% air and 100% relative humidity for 24 h prior to addition of experimental drugs.
(§3) After 24 h, two plates of each cell line are fixed in situ with TCA, to represent a measurement of the cell population for each cell line at the time of drug addition (Tz). […]
(§4) Following drug addition, the plates are incubated for an additional 48 h at 37° C., 5% CO2, 95% air, and 100% relative humidity. […] Bound stain is subsequently solubilized with 10 mM trizma base, and the absorbance is read on an automated plate reader at a wavelength of 515 nm. […] Using the seven absorbance measurements [time zero, (Tz), control growth, (C), and test growth in the presence of drug at the five concentration levels (Ti)], the percentage growth is calculated at each of the drug concentrations levels. Percentage growth inhibition is calculated as: [(Ti−Tz)/(C−Tz)]×100 for concentrations for which Ti>/=Tz [(Ti−Tz)/Tz]×100 for concentrations for which Ti<Tz.
(§5) Three dose response parameters are calculated for each experimental agent. […] The drug concentration resulting in total growth inhibition (TGI) is calculated from Ti=Tz. […] Values are calculated for each of these three parameters if the level of activity is reached; however, if the effect is not reached or is exceeded, the value for that parameter is expressed as greater or less than the maximum or minimum concentration tested.

TK-10 = assay: NCI 60 five-dose screening, TK-10
Protocol: as §1, §2, §3, §4, §5

PC-3 = assay: NCI 60 five-dose screening, PC-3
Protocol: as §1, §2, §3, §4, §5

A549/ATCC = assay: NCI 60 five-dose screening, A549/ATCC; assay type: cell-based, human; details: A549/ATCC (Non-small cell Lung), 48 h
RPMI-8226 = assay: NCI 60 five-dose screening, RPMI-8226
Protocol: as §1, §2, §3, §4, §5

COLO 205 = assay: NCI 60 five-dose screening, COLO 205
Protocol: as §1, §2, §3, §4, §5

UACC-257 = assay: NCI 60 five-dose screening, UACC-257
Protocol: as §1, §2, §3, §4, §5

SK-MEL-2 = assay: NCI 60 five-dose screening, SK-MEL-2
Protocol: as §1, §2, §3, §4, §5

OVCAR-8 = assay: NCI 60 five-dose screening, OVCAR-8
Protocol: The one-dose and five-dose experiments were conducted according to standard NCI protocols.
as §2
After 24 h, two plates of each cell line are fixed in situ with TCA, to represent a measurement of the cell population for each cell line at the time of drug addition (Tz). Experimental drugs are solubilized in dimethyl sulfoxide at 400-fold the desired final maximum test concentration and stored frozen prior to use. […]
as §4, §5

SW-620 = assay: NCI 60 five-dose screening, SW-620
Protocol: as §1, §2, §3, §4, §5

Question: With `COc1ccc(SC2c3cc(OC)c(OC)cc3Oc3nc(N)c(C#N)c(N)c32)cc1` (centres unmarked) [Compound 1, 2,4-diamino-7,8-dimethoxy-5-((4-methoxyphenyl)thio)-5H-chromeno[2,3-b]pyridine-3-carbonitrile] as the compound, how does the GI50 (UACC-62; Homo sapiens, UACC-62, 48 h) read?
Answer: The GI50 was 0.44 µM.

Question: And the CC50 (UACC-62; Homo sapiens, UACC-62, 48 h, read-out: LC50)?
Answer: Its CC50 is 4.3 µM.

Question: And the TGI (UACC-62; UACC-62 (Melanoma), five-dose, 48 h)?
Answer: The TGI was 1.73 µM.

Question: What about the GI50 (TK-10; Homo sapiens, TK-10, 48 h) of the same compound?
Answer: The GI50 was 1.63 µM.

Question: What about the CC50 (TK-10; Homo sapiens, TK-10, 48 h, read-out: LC50) of the same compound?
Answer: Its CC50 is 5.55 µM.

Question: And the TGI (TK-10; TK-10 (Renal Cancer), five-dose, 48 h)?
Answer: Its TGI is 3.01 µM.

Question: What about the GI50 (PC-3; Homo sapiens, PC-3, 48 h) of the same compound?
Answer: The GI50 was 1.16 µM.

Question: What about the CC50 (PC-3; Homo sapiens, PC-3, 48 h, read-out: LC50) of the same compound?
Answer: Its CC50 is 5.37 µM.

Question: And the TGI (PC-3; PC-3 (Prostate Cancer), five-dose, 48 h)?
Answer: Its TGI is 2.49 µM.

Question: And the TGI (A549/ATCC)?
Answer: Its TGI is 3.84 µM.

Question: What about the GI50 (A549/ATCC; Homo sapiens) of the same compound?
Answer: Its GI50 is 2.01 µM.

Question: And the GI50 (RPMI-8226; Homo sapiens, RPMI-8226, 48 h)?
Answer: Its GI50 is 0.35 µM.

Question: And the CC50 (RPMI-8226; Homo sapiens, RPMI-8226, 48 h, read-out: LC50)?
Answer: Its CC50 is > 100 µM.

Question: And the TGI (RPMI-8226; RPMI-8226 (Leukemia), five-dose, 48 h)?
Answer: Its TGI is 1.81 µM.

Question: What about the TGI (COLO 205; COLO 205 (Colon Cancer), five-dose, 48 h) of the same compound?
Answer: Its TGI is 2.65 µM.

Question: And the GI50 (COLO 205; Homo sapiens, COLO 205, 48 h)?
Answer: Its GI50 is 1.29 µM.

Question: And the CC50 (COLO 205; Homo sapiens, COLO 205, 48 h, read-out: LC50)?
Answer: Its CC50 is 5.43 µM.

Question: And the GI50 (UACC-257; Homo sapiens, UACC-257, 48 h)?
Answer: The GI50 was 1.87 µM.

Question: And the CC50 (UACC-257; Homo sapiens, UACC-257, 48 h, read-out: LC50)?
Answer: The CC50 was 5.9 µM.

Question: What about the TGI (UACC-257; UACC-257 (Melanoma), five-dose, 48 h) of the same compound?
Answer: Its TGI is 3.32 µM.

Question: What about the GI50 (SK-MEL-2; Homo sapiens, SK-MEL-2, 48 h) of the same compound?
Answer: The GI50 was 1.37 µM.

Question: What about the CC50 (SK-MEL-2; Homo sapiens, SK-MEL-2, 48 h, read-out: LC50) of the same compound?
Answer: Its CC50 is 5.76 µM.

Question: And the TGI (SK-MEL-2; SK-MEL-2 (Melanoma), five-dose, 48 h)?
Answer: Its TGI is 2.80 µM.

Question: What about the GI50 (OVCAR-8; Homo sapiens, OVCAR-8, 48 h) of the same compound?
Answer: The GI50 was 1.69 µM.

Question: And the CC50 (OVCAR-8; Homo sapiens, OVCAR-8, 48 h, read-out: LC50)?
Answer: The CC50 was 5.98 µM.

Question: What about the TGI (OVCAR-8; OVCAR-8 (Ovarian Cancer), five-dose, 48 h) of the same compound?
Answer: The TGI was 3.18 µM.

Question: What about the GI50 (SW-620; Homo sapiens, SW-620, 48 h) of the same compound?
Answer: The GI50 was 1.24 µM.

Question: And the CC50 (SW-620; Homo sapiens, SW-620, 48 h, read-out: LC50)?
Answer: Its CC50 is 8.29 µM.

Question: And the TGI (SW-620; SW-620 (Colon Cancer), five-dose, 48 h)?
Answer: The TGI was 3.20 µM.
